How the values were obtained:
[1] = tested on: E. coli HisRS; conditions: cited from earlier work
[2] = molecular target: T1, P. aeruginosa HisRS (Pseudomonas aeruginosa, UniProt Q9HXJ5); assay: ATP:PPi exchange reactions; format: biochemical; conditions: substrate varied, other substrate constant at 2 mM
T1 sequence (Q9HXJ5 1-429): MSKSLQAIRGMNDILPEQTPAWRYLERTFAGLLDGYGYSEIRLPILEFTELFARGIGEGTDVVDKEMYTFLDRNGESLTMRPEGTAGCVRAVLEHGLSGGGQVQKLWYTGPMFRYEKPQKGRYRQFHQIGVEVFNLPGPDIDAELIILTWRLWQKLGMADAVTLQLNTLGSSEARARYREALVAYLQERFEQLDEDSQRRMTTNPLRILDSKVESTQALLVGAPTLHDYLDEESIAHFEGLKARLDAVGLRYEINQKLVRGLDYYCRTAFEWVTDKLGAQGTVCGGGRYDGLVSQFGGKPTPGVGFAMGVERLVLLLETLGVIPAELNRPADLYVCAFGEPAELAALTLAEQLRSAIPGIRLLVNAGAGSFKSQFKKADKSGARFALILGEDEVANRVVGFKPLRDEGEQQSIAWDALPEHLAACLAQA

[3] = substrate: N[C@@H](Cc1c[nH]cn1)C(=O)O; assay: ATP:PPi exchange reactions; format: biochemical, Pseudomonas aeruginosa; conditions: other: substrate varied, other substrate constant at 2 mM; pH 7.5; 37.0 °C
[4] = substrate: Nc1ncnc2c1ncn2[C@@H]1O[C@H](COP(=O)(O)OP(=O)(O)OP(=O)(O)O)[C@@H](O)[C@H]1O; assay: ATP:[32P]PPi exchange at pH 7.5, 37 °C, 0.05 µM HisRS, ATP varied; format: biochemical

Question: For `N[C@@H](Cc1c[nH]cn1)C(=O)O` [histidine], which turnover ([1]; E. coli HisRS, interaction with His, different research groups ref 24, 25) is on record?
Answer: 7 to 142 s⁻¹

Question: With `Nc1ncnc2c1ncn2[C@@H]1O[C@H](COP(=O)(O)OP(=O)(O)OP(=O)(O)O)[C@@H](O)[C@H]1O` [ATP] as the molecule, how does the Km [2] read?
Answer: 298 µM

Question: What about the “kcat (turnover number)” value [2] of the same molecule?
Answer: 16.8 s⁻¹

Question: And the Km ([1]; E. coli HisRS ref 12)?
Answer: 890 µM

Question: What about the kcat ([1]; E. coli HisRS, interaction with ATP ref 24) of the same molecule?
Answer: 34 s⁻¹

B1: P. aeruginosa HisRS (Pseudomonas aeruginosa PAO1) (protein)
chain: T1 sequence (Q9HXJ5 1-429)
Question: For B1, which Km [3] is on record?
Answer: 37.6 µM

Question: And the kcat [3]?
Answer: 8.32 s⁻¹

Question: And the Km [4]?
Answer: 298.5 µM

— article PMC5794219 (SLAS discovery : advancing life sciences R & D, 2017)
